Converted amounts (≈) assume the structure as drawn. Where two headings read alike, the source gives them in different places.
Assays:
Type in all cases: cell-based
[1] = system: Enterobacter cloacae; experiment: MIC, broth microdilution, standard strains and Japanese clinical isolates (Example 5, Table 4)
[2] = system: Enterobacter hormaechei; experiment: as above; conditions: ATCCBAA2082; KUB4001 Enterobacter hormaechei ATCC BAA-2082, KPC-2
[3] = system: Providencia rettgeri; experiment: as above; conditions: ATCCBAA2525; KUB4010 Providencia rettgeri ATCC BAA-2525, OXA-181
[4] = system: CRE and CPE strains; experiment: MIC, broth microdilution, standard strains and Japanese clinical isolates (Example 5, Table 4 continued; organism of each KUB strain not given)

## CC(C)(O/N=C(\C(=O)N[C@@H]1C(=O)N2C(C(=O)[O-])=C(C[n+]3ccccc3)CS[C@H]12)c1csc(N)n1)C(=O)O [CAZ, ceftazidime]
[1]; ATCCBAA2341, KUB4002 Enterobacter cloacae ATCC BAA-2341, KPC-3
  MIC: > 32 µg/mL
[1]; ATCCBAA2468, KUB4006 Enterobacter cloacae ATCC BAA-2468, NDM-1
  MIC: > 32 µg/mL
[2]
  MIC: > 32 µg/mL
[3]
  MIC: > 32 µg/mL
[4]; strain KUB3148, carbapenemase gene KPC-3, read-out: MIC
  MIC: > 32 µg/mL
[4]; strain KUB3149, carbapenemase gene NDM-1, read-out: MIC
  MIC: > 32 µg/mL
[4]; strain KUB3150, carbapenemase gene OXA-48, read-out: MIC
  MIC: 1 µg/mL (≈ 1.83 µM)
[4]; strain KUB3151, carbapenemase gene IMP-1, read-out: MIC
  MIC: > 32 µg/mL
[4]; strain KUB3152, carbapenemase gene KPC-2, read-out: MIC
  MIC: 32 µg/mL (≈ 58.5 µM)
[4]; strain KUB3153, carbapenemase gene KPC-3, read-out: MIC
  MIC: > 32 µg/mL
[4]; strain KUB3154, carbapenemase gene KPC-2, read-out: MIC
  MIC: 32 µg/mL (≈ 58.5 µM)
[4]; strain KUB3158, carbapenemase gene OXA-48
  MIC: 0.5 µg/mL (≈ 0.915 µM)
[4]; strain KUB3169, carbapenemase gene Unidentified
  MIC: 8 µg/mL (≈ 14.6 µM)
[4]; strain KUB3170, carbapenemase gene Unidentified
  MIC: 8 µg/mL (≈ 14.6 µM)
[4]; strain KUB3171, carbapenemase gene -
  MIC: 8 µg/mL (≈ 14.6 µM)
